Experimental data reported in PubChem BioAssay AID222 (DTP/NCI, 2004).
Several values for one entry are separate records, joined by “and”; a condition that tells them apart may be missing. Equal values may be shown once. Toxic doses and inconclusive results are not listed. The calls were made as follows: active = survival T/C of 150% or more; inactive = T/C below 125% in these data.

Test system: C57BL/6 mice, intracerebral ependymoblastoma, median survival T/C
Assay: NCI In Vivo Anticancer Drug Screen. Data for tumor model Ependymoblastoma (intracerebral) in C57BL/6 mice
Conditions: endpoint: median survival time, higher = longer survival
Procedure: The antitumor activity of compounds was measured in mice bearing transplantable tumors. Survival or tumor size were measured and the results are expressed as the measurement made in the treated group (T) divided by the measurement made in the vehicle treated control group (C). The tumor model used in this assay is Ependymoblastoma (intracerebral) in C57BL/6 mice

[1] = dose: 12.5 mg/kg/injection, schedule: Q01DX005 (ip), vehicle: saline with Tween-80
[2] = dose: 25.0 mg/kg/injection, schedule: Q01DX005 (ip), vehicle: saline with Tween-80
[3] = dose: 50.0 mg/kg/injection, schedule: Q01DX005 (ip), vehicle: saline with Tween-80
[4] = dose: 100.0 mg/kg/injection, schedule: Q01DX005 (ip), vehicle: saline with Tween-80

Measured: T/C

Nc1ccc(S(=O)(=O)c2ccc(N)cc2)cc1
inactive: [1] 108 % of control | [2] 108 % of control | dose: 45.0 mg/kg/injection, schedule: Q01DX005 (ip), vehicle: saline with Tween-80 98 % of control and 102 % of control | [3] 87 % of control | dose: 90.0 mg/kg/injection, schedule: Q01DX005 (ip), vehicle: saline with Tween-80 96 % of control and 98 % of control | [4] 100 % of control | dose: 180.0 mg/kg/injection, schedule: Q01DX005 (ip), vehicle: saline with Tween-80 101 % of control and 87 % of control | dose: 200.0 mg/kg/injection, schedule: Q01DX005 (ip), vehicle: saline with Tween-80 86 % of control

COc1cc(C[C@H]2c3cc(OC)c(OC)cc3CCN2C)c(Oc2cc3c(cc2OC)-c2c(OC)c(OC)cc4c2[C@H](C3)N(C)CC4)cc1OC
inactive: [1] 97 % of control | [2] 92 % of control | [3] 100 % of control | [4] 93 % of control

O=c1c(O)c(-c2ccc(O)c(O)c2)oc2cc(O)cc(O)c12
inactive: dose: 12.5 mg/kg/injection, schedule: Q01DX005 (ip), vehicle: Klucel (hydroxypropylcellulose) (HPC) 95 % of control | dose: 12.5 mg/kg/injection, schedule: Q01DX005 (ip), vehicle: other 107 % of control | dose: 25.0 mg/kg/injection, schedule: Q01DX005 (ip), vehicle: Klucel (hydroxypropylcellulose) (HPC) 104 % of control | dose: 25.0 mg/kg/injection, schedule: Q01DX005 (ip), vehicle: other 93 % of control | dose: 50.0 mg/kg/injection, schedule: Q01DX005 (ip), vehicle: Klucel (hydroxypropylcellulose) (HPC) 100 % of control | dose: 50.0 mg/kg/injection, schedule: Q01DX005 (ip), vehicle: other 91 % of control | dose: 100.0 mg/kg/injection, schedule: Q01DX005 (ip), vehicle: Klucel (hydroxypropylcellulose) (HPC) 99 % of control | dose: 100.0 mg/kg/injection, schedule: Q01DX005 (ip), vehicle: other 102 % of control | dose: 200.0 mg/kg/injection, schedule: Q01DX005 (ip), vehicle: other 105 % of control

NC(=O)c1ncn(C2OC(CO)C(O)C2O)n1 (stereo unspecified)
inactive: dose: 20.0 mg/kg/injection, schedule: Q01DX005 (ip), vehicle: saline 108 % of control | dose: 40.0 mg/kg/injection, schedule: Q01DX005 (ip), vehicle: saline 105 % of control | dose: 80.0 mg/kg/injection, schedule: Q01DX005 (ip), vehicle: saline 108 % of control

CCOC(=O)CNC(=O)CCCCSc1ncnc2nc[nH]c12
inactive: dose: 1.0 mg/kg/injection, schedule: Q01DX005 (ip), vehicle: Klucel (hydroxypropylcellulose) (HPC) 109 % of control | dose: 4.0 mg/kg/injection, schedule: Q01DX005 (ip), vehicle: saline 103 % of control | dose: 8.0 mg/kg/injection, schedule: Q01DX005 (ip), vehicle: Klucel (hydroxypropylcellulose) (HPC) 104 % of control | dose: 16.0 mg/kg/injection, schedule: Q01DX001 (ip), vehicle: Klucel (hydroxypropylcellulose) (HPC) 104 % of control and 105 % of control and 106 % of control | dose: 16.0 mg/kg/injection, schedule: Q01DX001 (oral), vehicle: Klucel (hydroxypropylcellulose) (HPC) 95 % of control and 102 % of control | dose: 16.0 mg/kg/injection, schedule: Q01DX005 (ip), vehicle: saline 95 % of control and 103 % of control | dose: 16.0 mg/kg/injection, schedule: Q01DX005 (oral), vehicle: Klucel (hydroxypropylcellulose) (HPC) 94 % of control | dose: 16.0 mg/kg/injection, schedule: Q#A X002 (ip), vehicle: Klucel (hydroxypropylcellulose) (HPC) 108 % of control | dose: 32.0 mg/kg/injection, schedule: Q01DX005 (ip), vehicle: Klucel (hydroxypropylcellulose) (HPC) 103 % of control and 117 % of control | dose: 32.0 mg/kg/injection, schedule: Q## X006 (ip), vehicle: Klucel (hydroxypropylcellulose) (HPC) 102 % of control | dose: 64.0 mg/kg/injection, schedule: Q01DX001 (ip), vehicle: Klucel (hydroxypropylcellulose) (HPC) 90 % of control and 100 % of control and 108 % of control | dose: 64.0 mg/kg/injection, schedule: Q01DX001 (oral), vehicle: Klucel (hydroxypropylcellulose) (HPC) 102 % of control and 103 % of control | dose: 64.0 mg/kg/injection, schedule: Q01DX005 (ip), vehicle: saline 102 % of control and 107 % of control | dose: 64.0 mg/kg/injection, schedule: Q01DX005 (oral), vehicle: Klucel (hydroxypropylcellulose) (HPC) 106 % of control | dose: 64.0 mg/kg/injection, schedule: Q## X006 (ip), vehicle: Klucel (hydroxypropylcellulose) (HPC) 120 % of control | dose: 64.0 mg/kg/injection, schedule: Q#A X002 (ip), vehicle: Klucel (hydroxypropylcellulose) (HPC) 116 % of control | dose: 128.0 mg/kg/injection, schedule: Q01DX005 (ip), vehicle: Klucel (hydroxypropylcellulose) (HPC) 113 % of control and 116 % of control | dose: 128.0 mg/kg/injection, schedule: Q## X006 (ip), vehicle: Klucel (hydroxypropylcellulose) (HPC) 106 % of control | dose: 256.0 mg/kg/injection, schedule: Q01DX001 (ip), vehicle: Klucel (hydroxypropylcellulose) (HPC) 96 % of control and 106 % of control and 113 % of control | dose: 256.0 mg/kg/injection, schedule: Q01DX001 (oral), vehicle: Klucel (hydroxypropylcellulose) (HPC) 107 % of control | dose: 256.0 mg/kg/injection, schedule: Q01DX005 (ip), vehicle: saline 92 % of control and 109 % of control | dose: 256.0 mg/kg/injection, schedule: Q01DX005 (oral), vehicle: Klucel (hydroxypropylcellulose) (HPC) 108 % of control | dose: 256.0 mg/kg/injection, schedule: Q## X006 (ip), vehicle: Klucel (hydroxypropylcellulose) (HPC) 115 % of control | dose: 256.0 mg/kg/injection, schedule: Q#A X002 (ip), vehicle: Klucel (hydroxypropylcellulose) (HPC) 114 % of control | dose: 266.0 mg/kg/injection, schedule: Q01DX005 (ip), vehicle: Klucel (hydroxypropylcellulose) (HPC) 113 % of control and 120 % of control | dose: 512.0 mg/kg/injection, schedule: Q01DX005 (ip), vehicle: Klucel (hydroxypropylcellulose) (HPC) 108 % of control | dose: 512.0 mg/kg/injection, schedule: Q## X006 (ip), vehicle: Klucel (hydroxypropylcellulose) (HPC) 105 % of control | dose: 1024.0 mg/kg/injection, schedule: Q01DX001 (ip), vehicle: Klucel (hydroxypropylcellulose) (HPC) 103 % of control and 106 % of control and 112 % of control | dose: 1024.0 mg/kg/injection, schedule: Q01DX001 (oral), vehicle: Klucel (hydroxypropylcellulose) (HPC) 91 % of control and 97 % of control | dose: 1024.0 mg/kg/injection, schedule: Q01DX005 (ip), vehicle: saline 109 % of control | dose: 1024.0 mg/kg/injection, schedule: Q01DX005 (oral), vehicle: Klucel (hydroxypropylcellulose) (HPC) 115 % of control | dose: 1024.0 mg/kg/injection, schedule: Q#A X002 (ip), vehicle: Klucel (hydroxypropylcellulose) (HPC) 99 % of control
